Values belong to the compound of their own block, whether it stands above or below them. Calls of active or inactive are those of the source. The calls are words filed in the database; no cut-off is given here.
Tests used:
[1] = species on record: Bos taurus; experiment: Inhibition of calf thymus DNA topoisomerase 1-mediated supercoiled pSP64 plasmid DNA relaxation at 20 uM
[2] = test system: Saccharomyces cerevisiae; experiment: Growth inhibition of Saccharomyces cerevisiae RS322 after 48 hrs by XTT assay; type: functional
[3] = test system: Saccharomyces cerevisiae; experiment: Growth inhibition of Saccharomyces cerevisiae RJ03 after 48 hrs by XTT assay; type: functional
[4] = test system: Saccharomyces cerevisiae; experiment: Growth inhibition of Saccharomyces cerevisiae RS321 after 48 hrs by XTT assay; type: functional
[5] = test system: B16-F10; experiment: Cytotoxicity against mouse B16F10 cells upto 30 uM; type: functional, cell-based
[6] = species on record: Mus musculus; experiment: Cytotoxicity against mouse lung carcinoma cells upto 30 uM; type: functional, cell-based
[7] = test system: COLO 205; experiment: Cytotoxicity against human COLO205 cells upto 30 uM; type: functional, cell-based
[8] = test system: P388; experiment: Cytotoxicity against camptothecin-resistant mouse P388 cells by soft-agar colony-formation assay; type: functional, cell-based
[9] = test system: P388; experiment: Cytotoxicity against mouse P388 cells by soft-agar colony-formation assay; type: functional, cell-based
[10] = biological target: T1, DNA topoisomerase 1 (Homo sapiens) (UniProt P11387); experiment: Induction of human recombinant topoisomerase 1-mediated pBR322 plasmid DNA cleavage assessed as increase in nicked form 2 at 100 uM after 60 mins
T1 sequence (whole entry): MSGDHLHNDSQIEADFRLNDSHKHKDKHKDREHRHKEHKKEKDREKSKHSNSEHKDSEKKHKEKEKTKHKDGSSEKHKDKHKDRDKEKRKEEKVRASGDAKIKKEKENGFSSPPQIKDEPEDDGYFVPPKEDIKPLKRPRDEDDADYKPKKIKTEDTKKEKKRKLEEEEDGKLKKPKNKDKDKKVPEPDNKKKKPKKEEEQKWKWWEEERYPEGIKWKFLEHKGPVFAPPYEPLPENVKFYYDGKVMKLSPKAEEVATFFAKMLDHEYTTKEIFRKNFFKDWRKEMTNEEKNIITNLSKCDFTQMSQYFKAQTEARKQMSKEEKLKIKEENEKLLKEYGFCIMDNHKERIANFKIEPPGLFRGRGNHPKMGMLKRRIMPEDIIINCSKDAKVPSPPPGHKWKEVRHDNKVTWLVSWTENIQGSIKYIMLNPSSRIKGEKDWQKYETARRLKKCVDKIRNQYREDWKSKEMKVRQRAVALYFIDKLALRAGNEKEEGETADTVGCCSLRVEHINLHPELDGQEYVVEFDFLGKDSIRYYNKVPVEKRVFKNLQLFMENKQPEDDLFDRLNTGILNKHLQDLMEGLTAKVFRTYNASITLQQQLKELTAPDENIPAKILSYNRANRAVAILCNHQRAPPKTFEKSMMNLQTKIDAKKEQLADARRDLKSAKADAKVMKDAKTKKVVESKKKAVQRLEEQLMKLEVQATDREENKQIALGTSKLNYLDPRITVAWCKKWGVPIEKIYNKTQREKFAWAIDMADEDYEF

[11] = biological target: T1, DNA topoisomerase 1 (Homo sapiens); experiment: Inhibition of human recombinant DNA topoisomerase 1-mediated pBR322 DNA relaxation activity at 20 to 200 uM after 30 mins by gel electrophoresis

Activity [1]: Active
Compound: COc1cc2c[n+](C)c3c4cc5c(cc4ccc3c2cc1OC)OCO5

Compound: COc1cc2c(cc1OC)-c1c3c(cc4c1[C@H](C2)N(C)CC4)OCO3
Activity [2]: inactive
Activity [3]: inactive
Activity [4]: inactive

Activity [10]: 29%
Activity [11]: inactive
Compound: COc1cc2c(cc1OC)-c1c3c(cc4ccnc(c14)C2=O)OCO3 [DICENTRINONE]
IC12 [2]: 49 µg/mL
Activity [5]: Not toxic
IC12 [3]: > 2000 µg/mL
Activity [6]: Not toxic
Activity [7]: Not toxic
IC50 [8]: 100 µM
IC12 [4]: > 2000 µg/mL
IC50 [9]: 100 µM
